Active and inactive are the calls of the source. The calls are words filed in the database; no cut-off is given here.
Experiments:
[1] = target: MAP kinase p38 (Homo sapiens) (UniProt O15264+Q15759+Q16539+P53778); assay: Inhibition of p38 mediated MK2 activation in HCA2 cells at 25 uM; assay type: cell-based
[2] = target: T1, MAP kinase-activated protein kinase 2 (Homo sapiens, UniProt P49137); assay: Inhibition of MK2 mediated HSP27 phosphorylation in immortalised WS cells assessed as reduction in F-actin stress fibres; assay type: cell-based
Target sequence in this assay (P49137 whole entry, looked up): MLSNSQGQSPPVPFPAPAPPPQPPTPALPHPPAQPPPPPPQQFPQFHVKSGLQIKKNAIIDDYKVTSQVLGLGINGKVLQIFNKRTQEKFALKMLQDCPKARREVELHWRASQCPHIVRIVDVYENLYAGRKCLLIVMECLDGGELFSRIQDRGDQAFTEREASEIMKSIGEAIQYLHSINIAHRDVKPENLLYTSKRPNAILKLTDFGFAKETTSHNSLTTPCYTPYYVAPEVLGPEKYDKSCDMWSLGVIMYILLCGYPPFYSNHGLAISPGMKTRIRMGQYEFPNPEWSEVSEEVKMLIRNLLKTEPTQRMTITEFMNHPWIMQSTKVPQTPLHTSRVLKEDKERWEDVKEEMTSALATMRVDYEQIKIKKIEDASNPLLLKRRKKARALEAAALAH

Homo sapiens = species on record: Homo sapiens; assay: Inhibition of JNK
[3] = target: T1, MAP kinase-activated protein kinase 2; assay: Inhibition of MK2 in human TERT immortalised HCA2 cells assessed as inhibition of anisomycin-induced HSP27 phosphorylation by ELISA; assay type: cell-based
Target sequence in this assay (P49137 whole entry): as the sequence (P49137 whole entry, looked up) above

[4] = target: T1, MAP kinase-activated protein kinase 2; assay: Inhibition of MK2 in human TERT immortalised HCA2 cells assessed as inhibition of anisomycin-induced HSP27 phosphorylation at 2.5 uM by ELISA; assay type: cell-based
[5] = target: T1, MAP kinase-activated protein kinase 2; assay: Inhibition of MK2 in human TERT immortalised HCA2 cells assessed as maximal inhibition of anisomycin-induced HSP27 phosphorylation at 25 uM by ELISA; assay type: cell-based
Target sequence in this assay (P49137 whole entry, looked up): as above

[6] = target: T1, MAP kinase-activated protein kinase 2; assay: Inhibition of MK2 mediated HSP27 phosphorylation in immortalised WS cells assessed as reduction in F-actin stress fibres at 25 uM after 6 days; assay type: cell-based
Target sequence in this assay (P49137 whole entry, looked up): as above

HCA2 = assay: Growth inhibition of HCA2 cells above 2.5 uM; assay type: functional, cell-based; settings: Homo sapiens
WS [7] = assay: Growth inhibition of WS cells above 2.5 uM; assay type: functional, cell-based; settings: Homo sapiens
WS [8] = assay: Growth inhibition of WS cells above 200 nM; assay type: functional, cell-based; settings: Homo sapiens

| SMILES | Activity [1] | Activity [2] | Activity (Homo sapiens) | IC50 [3] [nM] | Activity [4] | Activity [5] | Activity [6] | Activity (HCA2) | Activity (WS [7]) | Activity (WS [8]) | Ki app [4] [nM] |
| --- | --- | --- | --- | --- | --- | --- | --- | --- | --- | --- | --- |
| N#Cc1c(N)nc2c(c1N)Cc1cc(O)c(O)cc1O2 | inactive | Active | inactive | 2500 | Active | Active | Active | Active | Active | – | – |
| O=C(CCCc1ccc(-c2ccccc2F)cc1)Nc1ccc(O)cc1 | – | – | inactive | – | – | – | – | – | – | Active | 330 |
| C[S+]([O-])c1ccc(-c2nc(-c3ccc(F)cc3)c(-c3ccncc3)[nH]2)cc1 (stereo not drawn) | – | Active | – | – | – | – | – | – | – | – | – |
